From ChEMBL document CHEMBL1799929, “Efficient sequential synthesis of PET Probes of the COX-2 inhibitor [11C]celecoxib and its major metabolite [11C]SC-62807 and in vivo PET evaluation” (Bioorg Med Chem, 2011)

Experiments:
Type in all cases: ADME, organism-based
[1] = tested on: Blood; test: Drug uptake in Sprague-Dawley rat blood at 0.29 to 1.3 nmol/body, iv after 40 mins by gamma counting based PET imaging method; settings: in vivo
[2] = tested on: Blood; test: Drug uptake in Sprague-Dawley rat blood at 0.29 to 1.3 nmol/body, iv after 60 mins by gamma counting based PET imaging method; settings: in vivo, 1 h
[3] = tested on: Liver; test: Drug uptake in Sprague-Dawley rat liver at 0.29 to 1.3 nmol/body, iv after 10 mins by gamma counting based PET imaging method; settings: in vivo
[4] = tested on: Liver; test: Drug uptake in Sprague-Dawley rat liver at 0.20 to 1.4 nmol/body, iv after 2 mins by gamma counting based PET imaging method; settings: in vivo
[5] = tested on: Intestine; test: Drug uptake in Sprague-Dawley rat intestine at 0.20 to 1.4 nmol/body, iv after 60 mins by gamma counting based PET imaging method; settings: in vivo, 1 h
[6] = tested on: Blood; test: Drug uptake in Sprague-Dawley rat blood at 0.20 to 1.4 nmol/body, iv within 40 mins by gamma counting based PET imaging method; settings: in vivo
[7] = tested on: Kidney; test: Drug uptake in Sprague-Dawley rat kidney at 0.20 to 1.4 nmol/body, iv after 2 mins by gamma counting based PET imaging method; settings: in vivo
[8] = Drug uptake in Sprague-Dawley rat urine at 0.20 to 1.4 nmol/body, iv within 40 mins by gamma counting based PET imaging method; settings: in vivo
[9] = tested on: Liver; test: Drug uptake in Sprague-Dawley rat liver at 0.20 to 1.4 nmol/body, iv within 40 mins by gamma counting based PET imaging method; settings: in vivo
[10] = Drug uptake in Sprague-Dawley rat bile at 0.20 to 1.4 nmol/body, iv within 40 mins by gamma counting based PET imaging method; settings: in vivo
[11] = Drug uptake in Sprague-Dawley rat urinary bladder at 0.20 to 1.4 nmol/body, iv after 60 mins by gamma counting based PET imaging method; settings: in vivo, 1 h

In the case of [11CH3]c1ccc(-c2cc(C(F)(F)F)nn2-c2ccc(S(N)(=O)=O)cc2)cc1, the Drug uptake [1] is reported as “Active”, the Drug uptake [2] is reported as over 1 %ID/ml and the Drug uptake [3] is reported as “Active”.
For NS(=O)(=O)c1ccc(-n2nc(C(F)(F)F)cc2-c2ccc([11C](=O)O)cc2)cc1, the Drug uptake [4] was 35 %ID, the Drug uptake [5] was 58 %ID and the Drug uptake [6] was “Active”. The Drug uptake [7] was 14 %ID, the Drug uptake [8] was “Active” and the Drug uptake [9] was “Active”. The Drug uptake [10] was “Active” and the Drug uptake [11] was 22 %ID.
